Measurements reported in patent publication US9284310B2, “Inhibitors of cytomegalovirus” (Boehringer Ingelheim International GmbH, priority 2012, dated 2016).

Experiments:
HCMV AD169 virus [1] = assay: HCMV AD169 CPE Assay (Example A); type: cell-based; details: Human betaherpesvirus 5, AD169, MRC5, 216 h, MRC-5 cells, 9 days, MTS readout
Description: This assay format is a CPE (Cytopathic effect)-based assay that determines the ability of compounds to protect cells against infection with a dye reduction assay (MTS of CellTiter 96® AQueous Non-Radioactive Cell Proliferation Assay from Promega). The conversion of MTS into aqueous, soluble formazan is performed by dehydrogenase enzymes found in metabolically active cells. The quantity of formazan product determined by absorbance at 490 nm is directly proportional to the number of living cells in culture.
(§1) Serial dilutions of the DMSO stock compound solution are performed using DMSO in columns 2-11 and 14-23. DMSO alone is present in columns 1, 12, 13 and 24. Four μL of the DMSO serial dilutions is obtained and diluted using […] of D-MEM 5% FBS culture medium to obtain 4% DMSO (7×).
To perform the assay, 10 µL of the freshly prepared 4% DMSO serial dilution plate is added to the assay plate containing 40 μL of MRC-5 cells plated the day before (10000 cells per well). Twenty μL of diluted virus is added to columns 2-12 and 14-24 and only D-MEM 5% FBS medium to uninfected control (columns 1 and 13) for a final DMSO concentration of 0.6%.
The virus dilution is based on the amount of virus required to obtain a Signal-to-Background of 3-4 (generally between 0.1 and 1 μL of virus stock per well or MOI=0.05). The assay plates are incubated at 37° C. with 5% CO2 for 9 days in order to obtain 100% CPE in infected control without compound (columns 12 and 24). Ten μL of freshly mixed room temperature MTS/PMS (1:20 v/v) is added and the plates are incubated at 37° C. with 5% CO2 for 4-5 h (until signal saturation at 2.3 in the 100% CPE control). The plates are sealed with TopSeal for biosafety and read on the Envision plate reader (Perkin-Elmer) or equivalent at OD 492 nm.

[2] = tested on: HCMV AD169-Bac-Luc2 US2-US6 clone #26 virus; assay: HCMV AD169-Bac Luciferase Assay (Example B); type: cell-based, Human Cytomegalovirus; details: Human betaherpesvirus 5, AD169, MRC5, 72 h, read-out: EC50 Example B
Source text: This assay format is a luciferase reporter-based assay that determines the ability of compounds to inhibit the infection by detecting a luciferase signal decrease following the addition of BIGlo substrate (preparation indicated below) directly in the culture media. Mono-oxygenation of luciferin is catalyzed by luciferase in the presence of Mg2+, ATP and molecular oxygen. The generation of oxyluciferin is a luminescent reaction that can be detected with the proper platereader. Human Cytomegalovirus AD169-Bac is obtained from Dr. Thomas Shenk at Princeton University (reference paper Yu et al. 2002—J. Virol. 76 (5):2316-2328, herein incorpoarated by reference) and modified by recombineering to introduce a humanized firefly luciferase gene (Luc2) at the US2-US6 position in the HCMV genome. The virus is expanded in MRC-5 cells.
as §1
To perform the assay, 7 μL of the freshly prepared 4% DMSO serial dilution plate is added to the assay plate containing […] of MRC-5 cells plated the day before (10000 cells per well). Seventeen μL of diluted virus is added to columns 2-12 and 14-24 and only D-MEM 5% FBS medium to uninfected control (columns 1 and 13) for a final DMSO concentration of 0.6%. The virus dilution is based on the amount of virus required to obtain the highest luciferase signal possible without CPE (generally between 0.05 and 1 μL of virus stock per well or MOI=0.02). The assay plates are incubated at 37° C. with 5% CO2 for 3 days. Fifteen μL of room temperature BIGlo buffer is added to room temperature assay plates also incubated at room temperature for 15 minutes. The plates are sealed with TopSeal for biosafety and the luminescence signal is read on the TopCount plate reader (Perkin-Elmer) or equivalent.

HCMV AD169 virus [3] = assay: HCMV AD169 qPCR 96-Well Assay (Example C); type: cell-based; details: Human betaherpesvirus 5, AD169, MRC5, 72 h; qPCR of viral DNA, MRC-5 cells, 3 days
Description: The hCMV quantitative PCR (qPCR) assay evaluates the ability of a compound to inhibit, directly or indirectly, the replication of hCMV viral DNA during the first 72 h following the infection. Compounds that inhibit either entry or the hCMV polymerase are active in this assay. Compounds are tested in the qPCR assay in 96-well plates, using a 9-point dose-response with 8 compounds for each 96-well plate. The assay was adapted from the method described by Schnepf et al., Rapid determination of antiviral drug susceptibility of human cytomegalovirus by real-time PCR, Antiviral Research 81 (2009) 64-67.
Final Concentrations: • 10 mM Tris-HCl pH8.0 • 50 mM KCl • 2 mM MgCl2 • 0.45% Tween20 • 0.45% Nonidet P40
Serial dilutions of the DMSO stock compound solution are performed using DMSO in columns 2-10. DMSO alone is present in columns 1 and 11. Column 12 remains empty. Diluted compounds are further diluted with DMEM 5% FBS cell culture medium.
To perform the assay, 25 μL of inhibitor dilutions freshly prepared is added to the assay plate containing 50 μL of MRC-5 cells plated the day before (30000 cells per well). In a 9 point dose-response, column 1 contains mock infected cells and serves at negative control, with the appropriate concentration of DMSO, columns 2 to 10 contain compound dilutions and column 11 contains infected cells, with the appropriate concentration of DMSO and serves as the positive control. Column 12 serves for the standard curve in the qPCR process. Twenty-five μL of virus diluted in DMEM 5% FBS medium (to infect at MOI=0.05) is added to columns 2-11 and only D-MEM 5% FBS medium to uninfected control (column 1) for a final DMSO concentration of 0.6%. Incubate plates at 37° C. in 5% CO2 incubator for 3 days. Whole cell lysates are then obtained by adding 100 μL of Cell lysis buffer to each well including freshly added Proteinase K at a ratio of 1:5 (i.e. 200 μL Proteinase K:1000 μL Cell Lysis buffer) and incubating the assay plate at 56° C. for 1 h. Plates are centrifuged at 1300 rpm for 2 minutes to remove any condensation before proceeding with the qPCR.
The cell lysate is carefully pipetted up and down to mix well and diluted 1:40 in H2O to give a final dilution of 1:80 relative to the 100 μL of lysis buffer that Is added to the cells. 5 μL of diluted lysate is used for the qPCR reaction. An incubation of 5 minutes at 95° C. in a PCR machine is required to inactivate the Proteinase K. The cell lysates can be stored at −20° C. or used to perform qPCR immediately.
A 81 bp fragment of US17 gene from AD169 is amplified by PCR using primers qHCMV7 and qHCMV8. The PCR product is cloned into pCR4 TOPO vector (Invitrogen) and a clone harboring the insert is selected. A mitochondrial DNA is also added to normalize the HCMV copy number. Serial dilutions of the US17 plasmid and mitochondrial DNA are performed in heat-inactivated lysis buffer at the same dilution as the cell lysates (1:80). Usually, a standard curve ranging from 10E6 to 10E2 copies (per well) is suitable.
A typical qPCR reaction consists of the following:
A qPCR cycle consists of an initial denaturation of DNA and activation of the Taq enzyme at 95° C. for 10 min followed by 45 cycles of 15 seconds at 95° C. and 1 min at 60° C. Fluorescence is measured at each cycle, following the elongation step at 60° C. The reaction, data acquisition and analysis are performed using AppliedBiosystems 7500 Real time PCR system or other suitable real-time PCR system.

| Compound | EC50 (HCMV AD169 virus [1]) | EC50 [2] | EC50 (HCMV AD169 virus [3]) |
| --- | --- | --- | --- |
| O=C(Nc1ccc(-c2cnc(-c3cccc(C(F)(F)F)c3)[nH]2)cn1)c1cscn1 [Compound 1052] | 4200 nM | 450 nM | 1800 nM |
| C#CCn1cc(-c2ccc(NC(=O)c3cscn3)cc2)nc1-c1cccc(C(F)(F)F)c1 [Compound 1098] | – | 100 nM | – |
| CC(O)(c1cccc(C(F)(F)F)c1)c1nc(-n2ccc(NC(=O)c3cscn3)cc2=O)cn1CCCO (centres unmarked) [Compound 1119] | – | 770 nM | 2050 nM |
| NC(=O)CCn1nc(-c2cccc(Cl)c2)nc1-c1ccc(NC(=O)c2cscn2)cc1 [Compound 1109] | – | 185 nM | 455 nM |
| CC(O)(c1cccc(C(F)(F)F)c1)c1nc(-c2ccc(NC(=O)c3cscn3)cn2)cn1CCCOCc1ccccc1 (centres unmarked) [Compound 1115] | – | 535 nM | 1160 nM |
| Cc1c(Cl)cccc1-c1cn(C)c(-c2ccc(NC(=O)c3cscn3)nc2)n1 [Compound 1103] | – | 1170 nM | 5800 nM |
| O=C(Nc1ccc(-c2cnc(NC(=O)C3(c4cccc(Cl)c4)CCC3)[nH]2)cc1)c1cscn1 [Compound 1004] | 98 nM | 7 nM | – |
| O=C(Nc1ccc(-c2nnc(-c3cccc(Cl)c3)[nH]2)cc1)c1csnn1 [Compound 1133] | 2050 nM | – | – |
| O=C(Nc1ccc(-c2ncc(-c3cccc(C(F)(F)F)c3)[nH]2)cc1)c1csnn1 [Compound 1139] | 260 nM | 111 nM | – |
| CC(c1cccc(Cl)c1)c1ncc(-c2ccc(NC(=O)c3cscn3)cc2)[nH]1 (centres unmarked) [Compound 1086] | 355 nM | 118 nM | – |
| O=C(Nc1ccc(-c2nc(-c3cccc(C(F)(F)F)c3)nn2CCCN2CCOCC2)cc1)c1cscn1 [Compound 1077] | 903 nM | 180 nM | – |
| CC(O)(c1cccc(C(F)(F)F)c1)c1cccc(-n2ccc(NC(=O)c3cscn3)cc2=O)n1 (centres unmarked) [Compound 1130] | – | – | 375 nM |
| Cn1cc(-c2cccc(C(F)(F)F)c2)nc1-c1ccc(NC(=O)c2cscn2)cc1 [Compound 1097] | 280 nM | 60 nM | – |
| Cc1cccc(-c2nnc(-c3ccc(NC(=O)c4cscn4)cc3)[nH]2)c1 [Compound 1070] | 510 nM | 93 nM | – |
| O=C(Nc1ccc(-c2cnc(-c3cccc(C(F)(F)F)c3)[nH]2)cc1)c1cocn1 [Compound 1143] | 1220 nM | 245 nM | – |
| CC(c1cccc(C(F)(F)F)c1)c1nc(-n2ccc(NC(=O)c3cscn3)cc2=O)c[nH]1 (centres unmarked) [Compound 1116] | – | 27 nM | 160 nM |
| Cn1c(-c2ccc(NC(=O)c3cscn3)cc2)cnc1-c1cccc(C(F)(F)F)c1 [Compound 1096] | – | 665 nM | – |

| Compound | EC50 (HCMV AD169 virus [1]) | EC50 [2] | EC50 (HCMV AD169 virus [3]) |
| --- | --- | --- | --- |
| O=C(O)CCn1nc(-c2cccc(Cl)c2)nc1-c1ccc(NC(=O)c2cscn2)cc1 [Compound 1041] | 4100 nM | 645 nM | – |
| O=C(Nc1ccn(-c2cccc(Oc3cccc(Cl)c3)n2)c(=O)c1)c1cscn1 [Compound 1120] | – | 92 nM | – |
| O=C(Nc1ccn(-c2cccc(-c3cccc(Cl)c3)n2)c(=O)c1)c1cscn1 [Compound 1129] | – | – | 145 nM |
| O=C(Nc1ccc(-c2ncc(-c3cccc(Cl)c3)[nH]2)cc1)c1cscn1 [Compound 1045] | 345 nM | 66 nM | – |
| O=C(Nc1ccc(-c2cccc(-c3cccc(Cl)c3)n2)cc1)c1cocn1 [Compound 1038] | 3100 nM | 1190 nM | – |
| O=C(Nc1ccc(-c2nc(-c3cccc(C(F)(F)F)c3)nn2CCCO)cc1)c1cscn1 [Compound 1034] | 275 nM | 59 nM | – |
| CC(O)(c1cccc(C(F)(F)F)c1)c1nc(-n2ccc(NC(=O)c3cscn3)cc2=O)cn1CCCOCc1ccccc1 (centres unmarked) [Compound 1118] | – | 460 nM | 970 nM |
| O=C(Nc1ccc(-c2cnc(-c3cc(C(F)(F)F)cc(C(F)(F)F)c3)[nH]2)cc1)c1cscn1 [Compound 1016] | 135 nM | 35 nM | – |
| CC(O)(c1cccc(C(F)(F)F)c1)c1nc(-c2ccc(NC(=O)c3cscn3)cn2)cn1CCCO (centres unmarked) [Compound 1113] | – | 620 nM | 2100 nM |
| O=C(Nc1ccn(-c2nnc(-c3cccc(Cl)c3)[nH]2)c(=O)c1)c1cscn1 [Compound 1117] | – | 1450 nM | 3200 nM |
| CC(O)(c1cccc(C(F)(F)F)c1)c1nc(-n2ccc(NC(=O)c3cscn3)cc2=O)c[nH]1 (centres unmarked) [Compound 1114] | – | 150 nM | 596 nM |
| CC(c1cccc(C(F)(F)F)c1)c1nc(-c2ccc(NC(=O)c3cscn3)cn2)cn1CCCO (centres unmarked) [Compound 1111] | – | 1260 nM | 665 nM |
| O=C(Nc1ccc(-c2ncc(-c3cccc(Cl)c3)[nH]2)cn1)c1cscn1 [Compound 1059] | – | 425 nM | – |
| O=C(Nc1ccc(-c2nc(-c3cccc(Cl)c3)nn2CC(O)CO)cc1)c1cscn1 (centres unmarked) [Compound 1121] | – | 63 nM | 275 nM |
| CC(c1cccc(C(F)(F)F)c1)c1nc(-c2ccc(NC(=O)c3cscn3)cn2)c[nH]1 (centres unmarked) [Compound 1087] | – | 87 nM | – |
| CC(O)(c1cccc(C(F)(F)F)c1)c1nc(-c2ccc(NC(=O)c3cscn3)cn2)c[nH]1 (centres unmarked) [Compound 1092] | – | 203 nM | 620 nM |
